Columns and labels:
Staphylococcus aureus = assay: Zone of inhibition test of gentamicin-coated stainless steel coupon on agar plate; type: cell-based; conditions: 4% gentamicin solution in water nebulized onto 0.5" polished 316 stainless steel coupon; incubated at 38° C. for 24 hours; initial S. aureus inoculum 10^5 bacteria per cubic centimeter
From the text: A filter paper disk, or other object, impregnated with a particular antimicrobial agent is applied to an agar medium that is inoculated with the test organism. Where the anti-microbial agent diffuses through the medium, and as long as the concentration of the antimicrobial agent is above the MIC, none of the susceptible organism will grow on or around the disk for some distance. This distance is called a zone of inhibition. […] The diameter of the zone of inhibition is inversely proportional to the MIC.
A 4% gentamicin solution in water was applied to a 0.5″ polished 316 stainless steel coupon using the device described in FIGS. 3A and 3B according to the cycle described in FIG. 10. The stainless steel coupon was then incubated at 38° C. for 24 hours in an agar plate containing an initial Staphylococcus aureus inoculum of 10^5 bacteria per cubic centimeter of solution.

microorganism = conditions: French Percuflex catheters dip-coated, sterilized with ethylene oxide, stored; for thirty days after being coated; cited from earlier work

| Compound | protective zone of inhibition formed around the coupon (Staphylococcus aureus) | antimicrobial properties (zone of inhibition) (microorganism) |
| --- | --- | --- |
| gentamicin | approximately 8 mm |  |
| Oc1cc(Cl)ccc1Oc1ccc(Cl)cc1Cl [2,4,4′-tricloro-2-hydroxydiphenyl ether] |  | produced a zone of inhibition |
